Assay results published in ChEMBL document CHEMBL1201862, “PubChem BioAssay data set” (2004).
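Values below derive from 48-hour exposures of cells grown in 96-well plates, with endpoints linearly interpolated between the two concentrations bracketing the appropriate inhibition level. Abbreviation: GI50, concentration required for 50% inhibition of growth.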 Active and inactive are the calls of the source. No stated cut-off is given here; in the data, active = GI50 up to about 1.1 µM and inactive = higher.

What was measured:
Experiment in all cases: NCI-60 cell line screen, 48 h
OVCAR-3 = test system: OVCAR-3
UO-31 = test system: UO-31
SF-295 = test system: SF-295
NCI-H522 = test system: NCI-H522
SK-MEL-5 = test system: SK-MEL-5
CCRF-CEM = test system: CCRF-CEM
UACC-257 = test system: UACC-257
LOX IMVI = test system: LOX IMVI
A498 = test system: A498
SF-539 = test system: SF-539
M14 = test system: M14
KM12 = test system: KM12
SK-OV-3 = test system: SK-OV-3
UACC-62 = test system: UACC-62
MOLT-4 = test system: MOLT-4
RPMI-8226 = test system: RPMI-8226
Malme-3M = test system: Malme-3M

Measured: GI50

CCOC(=O)/C=C1\Nc2ccccc2C(c2ccccc2)=NC1OC(C)=O (centres undefined)
inactive: OVCAR-3 > 100 µM | UO-31 44 µM | SF-295 > 100 µM | NCI-H522 > 100 µM | SK-MEL-5 > 100 µM | CCRF-CEM > 100 µM | UACC-257 > 100 µM | LOX IMVI > 100 µM | A498 > 100 µM | SF-539 > 100 µM | M14 > 100 µM | KM12 > 100 µM | SK-OV-3 > 100 µM | UACC-62 79.6 µM | MOLT-4 > 100 µM | RPMI-8226 76.6 µM | Malme-3M > 100 µM

COc1ccc(/C(C#N)=C2/O/C(=N/N)C(c3ccc(OC)c(OC)c3)C2=O)cc1OC (centres undefined)
inactive: OVCAR-3 > 100 µM | UO-31 > 100 µM | SF-295 > 100 µM | NCI-H522 > 100 µM | SK-MEL-5 > 100 µM | CCRF-CEM > 100 µM | UACC-257 > 100 µM | LOX IMVI > 100 µM | SF-539 > 100 µM | M14 > 100 µM | KM12 > 100 µM | SK-OV-3 > 100 µM | UACC-62 > 100 µM | MOLT-4 > 100 µM | RPMI-8226 > 100 µM | Malme-3M > 100 µM

O=C(/C=C/c1ccc(O)cc1)c1cc(Cl)ccc1O
inactive: OVCAR-3 28.2 µM | UO-31 21.8 µM | SF-295 35.2 µM | NCI-H522 17.2 µM | SK-MEL-5 37.2 µM | CCRF-CEM 6.32 µM | UACC-257 71.8 µM | LOX IMVI 18.7 µM | A498 > 100 µM | SF-539 18.8 µM | M14 55.3 µM | KM12 > 100 µM | SK-OV-3 > 100 µM | UACC-62 40.3 µM | MOLT-4 16.6 µM | Malme-3M 47.2 µM

CCOc1ccc(NC(=O)C(=O)CC(=O)c2sc(NNC(C)=O)nc2C)cc1
inactive: UO-31 > 100 µM | SF-295 > 100 µM | NCI-H522 > 100 µM | SK-MEL-5 > 100 µM | CCRF-CEM > 100 µM | UACC-257 > 100 µM | LOX IMVI > 100 µM | A498 > 100 µM | SF-539 > 100 µM | M14 > 100 µM | KM12 > 100 µM | SK-OV-3 > 100 µM | UACC-62 > 100 µM | MOLT-4 > 100 µM | RPMI-8226 > 100 µM

Cc1cn2cc(-c3ccncc3)nc2s1
inactive: OVCAR-3 > 100 µM | UO-31 > 100 µM | SF-295 > 100 µM | NCI-H522 > 100 µM | SK-MEL-5 > 100 µM | CCRF-CEM > 52.7 µM | UACC-257 > 100 µM | LOX IMVI > 49.8 µM | A498 > 100 µM | SF-539 > 100 µM | M14 > 100 µM | KM12 > 100 µM | SK-OV-3 > 100 µM | UACC-62 > 100 µM | MOLT-4 > 100 µM | RPMI-8226 > 47.2 µM | Malme-3M > 100 µM

O=C1CCC2(c3ccccc3)Nc3ccc(Cl)cc3N12 (centres undefined)
inactive: OVCAR-3 > 100 µM | UO-31 > 100 µM | SF-295 > 100 µM | NCI-H522 > 100 µM | SK-MEL-5 > 100 µM | CCRF-CEM > 100 µM | UACC-257 > 100 µM | LOX IMVI > 100 µM | A498 > 100 µM | SF-539 > 100 µM | M14 > 100 µM | KM12 > 100 µM | SK-OV-3 > 100 µM | UACC-62 > 100 µM | MOLT-4 > 100 µM | RPMI-8226 > 100 µM | Malme-3M > 100 µM

Cc1c(C(=O)/C=C/c2ccccc2[N+](=O)[O-])[n+]([O-])c2ccccc2[n+]1[O-]
inactive: OVCAR-3 3.76 µM | UO-31 18.8 µM | SF-295 7.5 µM | NCI-H522 3.94 µM | SK-MEL-5 12 µM | UACC-257 7.53 µM | A498 13.3 µM | SF-539 3.78 µM | M14 11 µM | KM12 10.3 µM | SK-OV-3 17.9 µM | MOLT-4 5.5 µM | RPMI-8226 2.96 µM | Malme-3M 13.3 µM

COC(=O)C(Cc1cc(OC)c(OC)c(OC)c1)C(=O)OC
inactive: OVCAR-3 > 320 µM | SF-295 > 320 µM | NCI-H522 > 320 µM | SK-MEL-5 > 320 µM | CCRF-CEM > 320 µM | UACC-257 > 320 µM | LOX IMVI > 320 µM | KM12 > 320 µM | SK-OV-3 > 320 µM | UACC-62 > 320 µM | MOLT-4 > 320 µM | RPMI-8226 > 320 µM | Malme-3M > 320 µM

C=C(C)C(=O)OC1CCC2(C)C(CCC3C2CCC2(C)C(c4ccc(=O)oc4)CC4OC432)C1 (centres undefined)
inactive: OVCAR-3 4.57 µM | UO-31 4.75 µM | SF-295 5.07 µM | NCI-H522 2.95 µM | SK-MEL-5 3.8 µM | CCRF-CEM 3.26 µM | UACC-257 2.96 µM | LOX IMVI 3.82 µM | A498 5.02 µM | SF-539 5.35 µM | KM12 6.4 µM | SK-OV-3 20.5 µM | UACC-62 3.33 µM | MOLT-4 2.41 µM | RPMI-8226 1.6 µM | Malme-3M 8.13 µM

COC(=O)c1cc(Cl)ccc1NC(=O)c1ccc([N+](=O)[O-])cc1
inactive: OVCAR-3 15.6 µM | UO-31 17.2 µM | SF-295 2.42 µM | SK-MEL-5 47.5 µM | CCRF-CEM 22.8 µM | UACC-257 39.2 µM | A498 17.5 µM | SF-539 20.4 µM | M14 29 µM | KM12 19.8 µM | SK-OV-3 19.7 µM | UACC-62 24.2 µM | MOLT-4 35.6 µM | RPMI-8226 20.2 µM | Malme-3M 23 µM

COc1cccc(NC(=O)/C(CC(=O)CC(c2ccccc2)c2c(O)c3ccccc3oc2=O)=N\NC(C)(C)C)c1OC (centres undefined)
inactive: OVCAR-3 78.9 µM | UO-31 72.1 µM | SF-295 > 100 µM | SK-MEL-5 > 100 µM | CCRF-CEM 25.7 µM | UACC-257 > 100 µM | LOX IMVI 36.9 µM | A498 > 100 µM | SF-539 34.5 µM | M14 44.5 µM | KM12 34 µM | SK-OV-3 > 100 µM | UACC-62 33.3 µM | MOLT-4 28.7 µM | RPMI-8226 29.3 µM | Malme-3M > 100 µM

Cc1cc(Cl)ccc1NC(=O)CC1SC(NC(=O)c2ccccc2Cl)=NC1=O (centres undefined)
inactive: OVCAR-3 17.5 µM | UO-31 21.6 µM | SF-295 > 100 µM | NCI-H522 15.1 µM | SK-MEL-5 30.8 µM | CCRF-CEM 2.86 µM | UACC-257 16.3 µM | LOX IMVI 21.9 µM | A498 > 100 µM | SF-539 19.2 µM | M14 17.1 µM | UACC-62 27.1 µM | MOLT-4 2.89 µM | RPMI-8226 15.2 µM | Malme-3M 19.7 µM

O=C(N/C(=C\c1cc(Cl)ccc1Cl)c1nc2c(O)nc(S)nc2[nH]1)c1ccccc1
inactive: OVCAR-3 43.5 µM | UO-31 23.6 µM | SF-295 37.4 µM | NCI-H522 38 µM | SK-MEL-5 47 µM | CCRF-CEM 13.4 µM | LOX IMVI 22.1 µM | A498 > 100 µM | SF-539 27.7 µM | M14 22.9 µM | KM12 23.4 µM | SK-OV-3 98.2 µM | UACC-62 19.7 µM | MOLT-4 16.1 µM | RPMI-8226 12.6 µM | Malme-3M > 90.2 µM

O=C(N/C(=C\c1ccc(/C=C(\NC(=O)c2ccccc2)c2nc3cc([N+](=O)[O-])ccc3[nH]2)cc1)c1nc2cc([N+](=O)[O-])ccc2[nH]1)c1ccccc1
inactive: OVCAR-3 39.6 µM | UO-31 46.7 µM | SF-295 43.1 µM | NCI-H522 11.4 µM | SK-MEL-5 22.2 µM | CCRF-CEM 20.8 µM | UACC-257 47.8 µM | LOX IMVI 28.8 µM | A498 26 µM | SF-539 80.4 µM | M14 30.8 µM | SK-OV-3 > 100 µM | UACC-62 15.4 µM | MOLT-4 11 µM | RPMI-8226 12 µM | Malme-3M > 100 µM

C/C(=N/NC(N)=S)c1ccc2ccccc2c1
inactive: OVCAR-3 30.4 µM | SF-295 29.4 µM | NCI-H522 17.6 µM | SK-MEL-5 14.2 µM | CCRF-CEM 22.5 µM | UACC-257 41.9 µM | LOX IMVI 39.8 µM | A498 42.4 µM | SF-539 17.1 µM | M14 11.8 µM | KM12 9.16 µM | SK-OV-3 21.9 µM | UACC-62 9.42 µM | MOLT-4 21.9 µM | Malme-3M 41 µM

O=C(Cc1nc2ccc([N+](=O)[O-])cc2nc1O)C(=O)Nc1ccccc1[N+](=O)[O-]
inactive: OVCAR-3 > 100 µM | UO-31 > 100 µM | SF-295 > 100 µM | NCI-H522 20.3 µM | SK-MEL-5 > 100 µM | CCRF-CEM > 100 µM | UACC-257 > 100 µM | LOX IMVI 60.7 µM | A498 > 100 µM | SF-539 > 100 µM | M14 > 100 µM | KM12 86.3 µM | SK-OV-3 > 100 µM | UACC-62 > 100 µM | MOLT-4 > 100 µM | Malme-3M > 100 µM

Cc1ccc(NC(=O)CSc2nnc(Cc3ccccc3)o2)c(C)c1
inactive: UO-31 > 100 µM | SF-295 > 100 µM | NCI-H522 > 100 µM | SK-MEL-5 > 100 µM | CCRF-CEM > 100 µM | UACC-257 > 100 µM | LOX IMVI > 100 µM | M14 > 100 µM | KM12 > 100 µM | SK-OV-3 > 100 µM | UACC-62 > 100 µM | MOLT-4 > 100 µM | RPMI-8226 > 100 µM | Malme-3M > 100 µM
